US4783530A, “8-arylxanthines” (priority 1987, dated 1988)
In brackets after ≈: the same amount, converted by molar mass. Where a name gives a salt, the structure may show the parent alone. Read-outs that look alike come from different tables or passages of the source.

Legend:
[1] = target: T1, adenosine receptor sites on guinea pig cortical membranes (Cavia porcellus, UniProt P47745); experiment: Adenosine Receptor Binding Assay, inhibition of specific [^3 H]-cyclohexyladenosine ([^3 H]CHA) binding; details: 4 nM [^3 H]CHA, 120 minutes at 23° C.
T1 sequence (P47745 1-326): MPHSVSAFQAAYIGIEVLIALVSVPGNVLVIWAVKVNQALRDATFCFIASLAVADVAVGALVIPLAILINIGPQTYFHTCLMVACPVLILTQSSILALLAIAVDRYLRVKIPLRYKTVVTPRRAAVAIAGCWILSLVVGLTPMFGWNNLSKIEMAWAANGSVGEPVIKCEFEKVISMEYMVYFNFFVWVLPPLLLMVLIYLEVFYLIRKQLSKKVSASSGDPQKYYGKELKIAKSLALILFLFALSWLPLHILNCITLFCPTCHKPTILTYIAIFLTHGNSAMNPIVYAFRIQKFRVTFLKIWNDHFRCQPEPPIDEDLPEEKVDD
Experimental: Adenosine Receptor Binding Assay. The potency of 8-arylxanthine compounds to inhibit the specific binding of [^3 H]-cyclohexyladenosine ([^3 H]CHA) to adenosine receptor sites on guinea pig cortical membranes was examined using standard in vitro ligand binding techniques. […] Briefly, guinea pig cortical tissue was homogenized in ice cold 50 mM Tris HCl buffer (pH 7.4) using a Brinkman Polytron. The homogenate was centrifuged at 48,000 x g for 10 minutes and the resulting tissue pellet was suspended in fresh cold buffer to yield a tissue concentration of 10 mg (wet weight)/ml. This tissue suspension was incubated for 30 minutes at 37° C. in the presence of adenosine deaminase (0.2 I.U./mg tissue). Following this incubation, the tissue suspension was centrifuged as before and the resulting pellet was suspended in fresh buffer at a concentration of 7-10 mg tissue (wet weight)/ml. Inhibition of the specific binding of [^3 H]CHA (New England Nuclear; 25 Ci/mmol) was examined in a total volume of 2 ml containing 50 mM Tris HCl, 7-10 mg of cortical tissue (1 ml of tissue suspension), 4 nM [^3 H]CHA and various concentrations of the test compounds. Nonspecific binding was determined in the presence of 10^-5 M 2-chloroadenosine. The binding reaction was carried out for 120 minutes at 23° C. and was terminated by vacuum filtration over Whatman GF/B filters using a Brandel M-48R Cell Harvester. The filters were washed 3 times with 3 ml of cold buffer and placed in scintillation vials in a Beckman LS 3801 scintillation counter. Dose-inhibition curves were generated with 10-12 concentrations of the test compound using triplicate incubations. The inhibition constants (Ki value) were calculated using EBDA, a log-logit iterative curve fitting program (McPhearson, Comput. Prog. Biomed. 107:220, 1983).

A1 receptor = target: T2, A1 receptor (Rattus norvegicus, UniProt P25099); experiment: biochemical; details: for Ki: Schild analysis, A1 receptor mediated inhibition of adenylate cyclase; for Adenylate cyclase A2 /A1: ratio of A2 Ki to A1 Ki
T2 sequence (P25099 1-326): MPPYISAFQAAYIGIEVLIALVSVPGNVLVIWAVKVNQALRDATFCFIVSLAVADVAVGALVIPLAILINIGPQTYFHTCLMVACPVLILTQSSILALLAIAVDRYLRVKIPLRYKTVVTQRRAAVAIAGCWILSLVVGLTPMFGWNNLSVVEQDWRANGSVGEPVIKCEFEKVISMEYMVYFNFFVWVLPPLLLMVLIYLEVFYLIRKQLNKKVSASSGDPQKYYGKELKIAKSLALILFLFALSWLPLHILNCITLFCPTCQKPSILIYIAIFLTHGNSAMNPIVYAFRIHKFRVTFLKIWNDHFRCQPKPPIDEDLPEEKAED
Experimental: The A1 receptor mediated inhibition of adenylate cyclase activity was measured by a modification of the procedure of Londos et al. (Proc. Natl. Acad. Sci. 75: 5362, 1978). Membrane protein (10-15 μg) was added to a reaction mixture containing a final concentration of 25 mM Tris-HCl (pH 7.4), 2 mM MgCl2 50 μM ATP, 50 μM cAMP, 1 mM dithiothreitol, 0.25 mg/ml BSA, 1 IU/ml adenosine deaminase, 5 mM creatine phosphate, 0.2 mg/ml creatine phosphokinase, 80 mM NaCl, [α^32 P]ATP (1.5 c 10^-6 DPM) and 100M GTP in 100 μl final volume. Incubations were carried out for 10 minutes at 24° C.
(§1) The Ki values for the test compounds were derived from Schild analysis as described by Tallarida et al. (Life Sciences 25: 637, 1979) in which the progressive shift in the dose response to a standard agonist was assessed using 3 concentrations of the test compound distributed over a 100-fold molar range. All incubations were performed in triplicate.

A2 receptor = A2 receptor (Rattus norvegicus, UniProt P30543); experiment: biochemical; details: Schild analysis; A2 receptor mediated stimulation of adenylate cyclase, PC12 membranes
Experimental: The A2 receptor mediated stimulation of adenylate cyclase was measured by a modification of the procedure of Premont et al. (Molec. Pharmacol. 16: 790, 1979). Typically, pheochromocytoma cell (PC12) membranes were thawed and added to a reaction mixture containing a final concentration of 25 mM Tris-HCl, pH 7.1, 1 mM MgCl2, 50 μM ATP, 50 μM cAMP, 0.1 mM papaverine, 0.4 IU/ml adenosine deaminase, 5 mM creatine phosphate, 0.2 mg/ml creatine phosphokinase, 10 μg membrane protein, [α^32 P]ATP (μ10^-6 DPM), 5 μM GTP, and various concentrations of adenosine agonists and/or antagonists in a final volume of 100 μl. The reaction was initiated with the addition of tissue and incubated 30° C. for 20 minutes. Reactions were terminated with 100 μl of 40 mM ATP, 1.4 mM cAMP and 2% SDS. ^32 P-cAMP isolated according to the procedure to the procedure of Salomon et al. (Adv. Cyclic Nucleotide Res. 10: 35, 1979).
as §1

[2] = test system: NECA-induced depression of force and rate of an isolated guinea pig heart; experiment: NECA Depressed Langendorff Heart; details: for IC50: guinea pig; for NECA - Depressed Langendorff Heart Force/Rate: ratio of force to rate TC50
Experimental: NECA Depressed Langendorff Heart. Hearts were rapidly excised from male guinea-pigs and transferred to a beaker containing a Krebs-bicarbonate solution at 5° C. Each heart was gently massaged to clear it of blood and clots, and the surrounding tissue was cut away. The cut aortic stump was secured to a glass cannula for retrograde perfusion of the coronary circulation.
Perfusion was at a constant rate of 5-7 ml/min, produced with a Holter peristaltic pump. […] Alterations in perfusion pressure arising from changes in coronary vascular resistance were recorded on a Gould recorder by means of Gould pressure transducers attached at a sidearm of the aortic cannula. Isometric contractions of the heart were recorded with a Grass transducer attached by a suture via a pulley to a clip on the apex of the ventricles. Rates of contraction were determined by counting heart beats.
Drugs were added directly into the perfusion solutions. Drug concentrations were changed by switching solutions. Cardiac functions were depressed with NECA or adenosine by infusing a solution of one or the other ([…]) into the perfusion solution through an injection port located immediately adjacent to the warming coil. IC50 is defined as the concentration of compound that will cause 50 percent inhibition of the NECA-induced depression of force and rate of an isolated guinea pig heart.

[3] = Solubility (mg/ml) 37° C.
animals = details: in vivo; cited from earlier work
adenosine (A1) receptor = details: cited from earlier work
guinea pig thymocytes = details: less potent than 8-phenyltheophylline; NECA-induced cyclic AMP accumulation; cited from earlier work
adenosine receptors = details: Daly et al. J. Med. Chem. 1985; cited from earlier work
[4] = 50 percent inhibition of the NECA-induced depression of force, read-out: NECA - Depressed Langendorff Heart TC50 Force
[5] = 50 percent inhibition of the NECA-induced depression of rate, read-out: NECA - Depressed Langendorff Heart TC50 Rate

Sequence of A2 receptor (P30543 whole entry): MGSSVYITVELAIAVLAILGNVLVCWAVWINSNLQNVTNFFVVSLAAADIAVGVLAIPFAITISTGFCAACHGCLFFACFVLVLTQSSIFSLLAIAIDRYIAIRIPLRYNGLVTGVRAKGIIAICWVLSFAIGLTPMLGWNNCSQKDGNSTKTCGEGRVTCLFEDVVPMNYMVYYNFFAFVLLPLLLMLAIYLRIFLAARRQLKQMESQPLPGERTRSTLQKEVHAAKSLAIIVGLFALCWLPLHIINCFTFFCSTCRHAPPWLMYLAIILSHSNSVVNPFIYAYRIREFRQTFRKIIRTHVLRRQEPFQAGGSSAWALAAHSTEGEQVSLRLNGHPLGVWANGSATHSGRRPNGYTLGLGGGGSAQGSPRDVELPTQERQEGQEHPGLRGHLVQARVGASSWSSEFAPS

| Ki [1] [nM] | Ki (A1 receptor) [nM] | Adenylate cyclase A2 /A1 (A1 receptor) | Ki (A2 receptor) [nM] | solubility [3] [µg/mL] | Structure (SMILES) | IC50 [2, 4] [nM] | IC50 [2, 5] [nM] | NECA - Depressed Langendorff Heart Force/Rate [2] | force and rate properties / effect on force and rate of contraction (in words) ([2]; NECA depressed Langendorff heart, guinea pigs) | overt activity in animals (animals) | selectivity toward A1 adenosine receptor (adenosine (A1) receptor) | potency relative to 8-phenyltheophylline (guinea pig thymocytes) [fold] | selectivity after introduction of the sulfonyl group (adenosine receptors) |
| --- | --- | --- | --- | --- | --- | --- | --- | --- | --- | --- | --- | --- | --- |
| 169 | 88.7 | 7 | 664 | 25000 | CCCn1c(=O)c2[nH]c(-c3ccc(O)c(CN(C)C)c3)nc2n(CCC)c1=O [Pr Pr CH2 NMe2 OH, 1,3-Dipropyl-8-(3-N,N-dimethylaminomethyl-4hydroxyphenyl)xanthine hydrochloride hydrate] | 1490 | 2060 | 0.72 |  |  |  |  |  |
| 81 | 9.7 | 31.9 | 309 | 3000 | CCCn1c(=O)c2[nH]c(-c3ccc(C(=N)N)cc3)nc2n(CCC)c1=O [Pr Pr H C(NH)NH2, 1,3-Dipropyl-8-(4-amidinophenyl)xanthine hydrochloride hemi-hydrate] | 1400 | 7030 | 0.20 |  |  |  |  |  |
|  |  |  |  | 250 (≈ 621 µM) | CCCn1c(=O)c2[nH]c(-c3cccc(OCC(O)CO)c3)nc2n(CCC)c1=O (stereo not shown) [Pr Pr OCH2 (CH2 OH)2 H, 1,3-Dipropyl-8-[3-(2,3-dihydroxypropyloxy)phenyl]xanthine] | 490 | 1040 | 0.47 |  |  |  |  |  |
| 129 | 12 | 11.7 | 140 | 1000 | CCCn1c(=O)c2[nH]c(-c3ccc(C(=N)NC)cc3)nc2n(CCC)c1=O [Pr Pr H C(NH)NHMe, 1,3-Dipropyl-8-(4-N-methylamidinophenyl)xanthine hydrochloride hydrate] | 1470 | 3770 | 0.39 |  |  |  |  |  |
| 86 |  |  | 131 | 80 (≈ 201 µM) | CCCn1c(=O)c2[nH]c(-c3ccc(NC(=O)N(C)C)cc3)nc2n(CCC)c1=O [Pr Pr H NHC(=O)NMe2, 1,3-Dipropyl-8-(4-N,N-dimethylureidophenyl) xanthine] | 360 | 980 | 0.61 |  |  |  |  |  |
| 423 | 26.9 | 20 | 529 |  | CCCn1c(=O)c2[nH]c(-c3ccc(C(=O)OCC)cc3)nc2n(CCC)c1=O [Pr Pr H COOEt, 1,3-Dipropyl-8-(4-carboethoxyphenyl)xanthine] | 4780 | 7840 | 0.61 |  |  |  |  |  |

Continued, compound first:

| Structure (SMILES) | Ki [1] [nM] | Ki (A1 receptor) [nM] | Adenylate cyclase A2 /A1 (A1 receptor) | Ki (A2 receptor) [nM] | solubility [3] [µg/mL] | IC50 [2, 4] [nM] | IC50 [2, 5] [nM] | NECA - Depressed Langendorff Heart Force/Rate [2] | force and rate properties / effect on force and rate of contraction (in words) ([2]; NECA depressed Langendorff heart, guinea pigs) | overt activity in animals (animals) | selectivity toward A1 adenosine receptor (adenosine (A1) receptor) | potency relative to 8-phenyltheophylline (guinea pig thymocytes) [fold] | selectivity after introduction of the sulfonyl group (adenosine receptors) |
| --- | --- | --- | --- | --- | --- | --- | --- | --- | --- | --- | --- | --- | --- |
| CCCn1c(=O)c2[nH]c(-c3ccc(CN)cc3)nc2n(CCC)c1=O.Cl.O [Pr Pr H CH2 NH2, 1,3-Dipropyl-8-(4-aminomethylphenyl)xanthine hydrochloride hydrate] | 66.8 | 16.3 | 26 | 432 | 500 | 570 | 2000 | 0.28 |  |  |  |  |  |
| Cl.Cn1c(=O)c2[nH]c(-c3ccc(C(=N)N)cc3)nc2n(C)c1=O.O [Me Me H C(NH)NH2, 1,3-Dimethyl-8-(4-amidinophenyl)xanthine hydrochloride hydrate] | 1140 | 244 | 2.1 | 523 |  | 2010 | 15600 | 0.13 |  |  |  |  |  |
| CNC(=N)c1ccc(-c2nc3c([nH]2)c(=O)n(C)c(=O)n3C)cc1 [Me Me H C(NH)NHMe, 1,3-Dimethyl-8-(4-N-methylamidinophenyl)xanthine hydrochloride hydrate] | 1840 |  |  |  |  | 3640 | 18400 | 0.20 |  |  |  |  |  |
| CCCn1c(=O)c2[nH]c(-c3ccc(Cl)cc3N)nc2n(CCC)c1=O [PACPX, reference compound] | 45 | 12.6 | 33.4 | 421 | < 0.4 | 1110 | 180 | 6.17 | unfavorable force and rate properties | little overt activity in animals | selective toward A1 --adenosine receptor |  |  |
| Cn1c(=O)c2[nH]c(-c3ccc(S(=O)(=O)O)cc3)nc2n(C)c1=O [(II), 8-[4-sulfophenyl]-theophylline] |  |  |  |  |  |  |  |  |  |  |  | 3 | decrease in selectivity |
